Source: patent US20080118458A1, “Agent containing L-Carnitine or L-Carnitine derivatives and at least one other specific substance” (priority 2005, published 2008)

Experiments:
[1] = system: Hepatocyte Growth Factor (HGF); assay: Release of HGF into the medium of organotypical cell cultures (ELISA); type: cell-based; settings: 72 h; individual substance 0.01%; untreated = 100
Description: (§1) Hepatocyte Growth Factor (HGF) and Keratinocyte Growth Factor (KGF) are important growth factors which are released from the dermal papillae in order to control the proliferation of the hair keratinocytes. A potentially growth-promoting and hair-strengthening substance can be assumed from an increase in the factors released into the medium. The release of HGF and KGF can be quantified with the help of commercially available ELISA kits. For this, organotypical cell cultures are incubated over 72 h with the substance mixture and the concentration of the growth factors in the medium is determined in the described manner.

[2] = system: Keratinocyte Growth Factor (KGF); assay: Release of KGF into the medium of organotypical cell cultures (ELISA); type: cell-based; settings: 72 h; individual substance 0.01%; untreated = 100
Description: as §1

Compound	HGF mean [%] (standard deviation) [1]	KGF mean [%] (standard deviation) [2]
NCCS(=O)(=O)O [Taurine, 2-aminoethanesulfonic acid]	120 (21) %	71 (7) %
C[N+](C)(C)C[C@H](O)CC(=O)[O-].O=C(O)C(O)C(O)C(=O)O [Carnitine tartrate, L-carnitine tartrate]	100 (42) %	108 (8) %
